{
  "source": "patent US12685780B2",
  "about": "“Immune inducer containing polynucleotide-peptide conjugate and pharmaceutical composition containing same” (The University of Kitakyushu, priority 2020, dated 2026)",
  "key": {"MHC-1 on DC2.4 cells": {"target": "T1, MHC-1 on DC2.4 cells (Mus musculus, UniProt P01901)", "T1 construct": "endogenous in cells; host or cells: DC2.4 murine dendritic cell line", "T1 sequence (P01901 22-369)": "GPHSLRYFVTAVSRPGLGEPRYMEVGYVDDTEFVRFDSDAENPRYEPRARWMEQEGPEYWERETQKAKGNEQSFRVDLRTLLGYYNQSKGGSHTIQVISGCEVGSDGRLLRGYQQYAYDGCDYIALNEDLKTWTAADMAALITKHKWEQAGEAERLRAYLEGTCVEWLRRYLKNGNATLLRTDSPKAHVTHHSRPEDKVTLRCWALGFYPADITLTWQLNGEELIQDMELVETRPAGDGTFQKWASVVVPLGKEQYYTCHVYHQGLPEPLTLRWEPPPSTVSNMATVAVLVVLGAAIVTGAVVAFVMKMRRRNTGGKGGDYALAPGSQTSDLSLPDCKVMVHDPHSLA", "T1 sequence (P01887 21-119 partner)": "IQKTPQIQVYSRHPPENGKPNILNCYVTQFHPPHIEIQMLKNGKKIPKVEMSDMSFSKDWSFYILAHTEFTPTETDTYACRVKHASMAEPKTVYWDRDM", "experiment": "Competitive inhibition of binding of OVA peptide 1 to MHC-1 on DC2.4 cells", "parameters": "species or system murine", "settings": "peptide 2.5 μg/mL against OVA peptide 1 0.25 μg/mL, on ice 30 minutes", "protocol": "Murine dendritic cell line, DC2.4 cells, were detached from a dish, and suspended in 1.5 mL tubes at a concentration of 1.5×10^5 cells per […] of PBS."}, "[1]": {"test_system": "antigen-retaining splenocytes (TRP2-9)", "experiment": "Induction of cytotoxic T lymphocytes in mice (in vivo CTL assay, flow cytometry), mTRP2 antigen", "parameters": "species or system C57BL/6 mice", "settings": "antigen TRP2-9", "procedure": "A CpG DNA(S)-peptide conjugate as an antigen was intracutaneously administered to mice (C57BL/6 mice (♂, 7 weeks old)). The dose of a CpG DNA(S)-peptide conjugate was 50, 200 or 1000 ng per mouse in terms of peptide (about 0.4, 1.7 or 8.5 μg in terms of CpG30(S)). After one week of administration, splenocytes were isolated from those mice of the same strain not receiving administration, and divided into two aliquots of 2.0×10^7 cells/mL. To one aliquot, a peptide as an antigen was added to a concentration of 10 μg/mL, and the mixture was left to stand for 90 minutes to prepare antigen-retaining splenocytes. The other aliquot of splenocytes with no peptide added was regarded as non-antigen-retaining splenocytes. Both of the antigen-retaining splenocytes and the non-antigen-retaining splenocytes were fluorescently modified with 5,6-carboxyfluorescein succinimidyl ester (CFSE). During this process, the concentration of CFSE was varied such that the fluorescence intensity of the antigen-retaining splenocytes (CFSE: 1 μm) was higher than that of the non-antigen-retaining splenocytes (CFSE: 0.1 μm).\nAfter the lapse of 24 hours from the tail vein administration, splenocytes were isolated from the mice, and evaluated for induced antigen-specific cytotoxic T lymphocyte activity through flow cytometrically quantifying the percentages of antigen-retaining and non-antigen-retaining splenocytes to determine the amount of decrease in antigen-retaining splenocytes. For comparison's sake, other mice were administered PBS (phosphate-buffered saline) instead of a CpG DNA(S)-peptide conjugate, and were regarded as control groups. The control groups were subjected to flow cytometric analysis under the same conditions.\nThe dose of the conjugates administered was 200 ng per mouse in terms of peptide.\nThe second administration was performed after 10 days from the first administration. Both of the two doses were 200 ng per mouse in terms of peptide."}},
  "note": "Entries after “also recorded” stand apart in the source; their conditions may differ.",
  "data": [
    {"substance": "C-TRP2-8: CVYDFFVWL (SEQ ID NO: 32); cysteine added to N-terminus of amino acid residues 181 to 188 of mTRP2 (C-TRP2-8)", "values": [
      {"measurement": "Decrease of average fluorescence intensity (OVA peptide 1-MHC-1 complexes on DC2.4 cells)", "setting": "MHC-1 on DC2.4 cells", "value": 23, "unit": "%"}
    ]},
    {"substance": "C-TRP2-9: CSVYDFFVWL (SEQ ID NO: 31); cysteine added to the N-terminus of TRP2-9 (C-TRP2-9)", "values": [
      {"measurement": "Inhibitory activity against binding of OVA peptide 1 to MHC class I molecules", "setting": "MHC-1 on DC2.4 cells", "value": "no inhibitory activity was observed"}
    ]},
    {"substance": "CpG20(S)a-mTRP2pep9: CpG20(S)a (SEQ ID NO: 1) conjugated to peptide C-TRP2-8 (CVYDFFVWL) (DNA atcgactctcgagcgttctc; oligonucleotide-peptide conjugate; K3)", "values": [
      {"measurement": "CTL-inducing ability (decrease in antigen-retaining splenocytes)", "setting": "[1]; dose not stated", "value": "high CTL-inducing ability"}
    ]},
    {"substance": "CpG30(S)a-mTRP2pep9: CpG30(S)a (SEQ ID NO: 6, phosphorothioate) conjugated via disulfide spacer to peptide C-TRP2-8 (CVYDFFVWL) (DNA gagcgttctcatcgactctcgagcgttctc; phosphorothioate; disulfide spacer conjugate; K3-30(a))", "values": [
      {"measurement": "CTL-inducing ability (decrease in antigen-retaining splenocytes)", "setting": "[1]; 200 ng per mouse in terms of peptide, intracutaneous, single dose", "value": "marked decrease in antigen-retaining splenocytes; also recorded: can induce potent CTL activity"},
      {"measurement": "CTL-inducing ability (decrease in antigen-retaining splenocytes)", "setting": "[1]; dose not stated", "value": "high CTL-inducing ability"},
      {"measurement": "Dose dependency of CTL-inducing ability", "setting": "[1]; doses of 50, 200 or 1000 ng per mouse in terms of peptide", "value": "dose dependency"}
    ]}
  ]
}
